Assays:
[1] = test system: MC3T3-E1 osteoblasts; test: ColA1 protein in medium of MC3T3-E1 osteoblasts (collagen assay kit); assay type: cell-based; conditions: co-treatment with GIP inhibitor (10 μM or 100 μM), 7 days (FIG. 4)
Procedure: MC3T3-E1 osteoblasts were dispensed into 12-well plates at 100,000 cells/well and incubated for 24 hours using a medium containing 10% fetal bovine serum. […] The long-acting GIP used in the present invention was prepared by the same method as in the long-acting conjugate of the triple agonist illustrated in Example 2, wherein the long-acting GIP is in a form in which immunoglobulin Fc was linked to GIP analog via PEG, and the GIP inhibitor is GIP 3-30, in which the N-terminus was absent in native GIP.
After 7 days, the incubated medium was collected, and ColA1 in the medium was quantified using a collagen assay kit (Biocolor) according to the manufacturer's instructions.
Statistical analysis was performed by one-way ANOVA to compare between the control group and the test groups.

[2] = test system: MC3T3-E1 osteoblasts; test: Cell viability of MC3T3-E1 osteoblasts under fetal bovine serum deficiency; assay type: cell-based; conditions: co-treatment with conjugate (2 μM) and GIP inhibitor 0.31, 1.25, 5, 20 μM; dose-dependent manner (FIG. 5)
Procedure: MC3T3-E1 osteoblasts were dispensed into 96-well plates at 10,000 cells/well and incubated for 24 hours using a medium containing 10% fetal bovine serum. The medium in a normal group was replaced with a medium containing 10% bovine fetal serum, and the medium in each of the test groups was replaced with a medium containing no bovine fetal serum. […] The medium in each of the normal group and test groups was replaced, and after 48 hours, the cells were further incubated. Thereafter, the cell viability was analyzed using a collagen assay kit (Biocolor) according to the manufacturers instructions. The GIP inhibitor is GIP 3-30, in which the N-terminus region was absent in native GIP.

## GIP 3-30 (EGTFISDYSIAMDKIHQQDFVNWLLAQK; Gastric inhibitory polypeptide; UniProt P09681 54-81, looked up, fragment) [GIP inhibitor, GIP 3-30, in which the N-terminus was absent in native GIP, reference compound]
[1]
  effect of the long-acting conjugate of SEQ ID NO: 42 on the expression of ColA1 protein: reduced
[2]
  cell viability increased by the long-acting conjugate of SEQ ID NO: 42: reduced
